The term logP denotes a log measure of how a compound divides between an organic and an aqueous phase.

`C=C(C)C(=O)OCC(O)COc1cccc2ccccc12` (stereo unspecified) gave a lipophilicity (logP) of 3.31.

With `COC(C(=O)c1ccccc1)c1ccccc1` (stereo unspecified), the logP is 1.38.

On to `C=C(C)C(=O)OC`, for which the logP turned out to be 0.79.

`Cc1ccc(N(CCO)CCO)cc1` showed a logP of 1.09.

`C=C(C)C(=O)OCC(C)(O)COc1cccc2ccccc12` (stereo unspecified) displayed a logP of 3.77.

Molecule `C=C(C)C(=O)OCC(CC)CCCC` (stereo unspecified) had a logP of 4.67.

For the molecule `C=C(C)C(=O)OCC(O)COc1ccccc1` (stereo unspecified), the logP stood at 2.18.

The molecule `C=C(C)C(=O)OCCOCCOCCOC(=O)C(=C)C` registered a logP of 1.88.

As to `O=C(OOC(=O)c1ccccc1)c1ccccc1`, the logP was 3.46.

Molecule `C=Cc1ccc(C(=O)O)cc1` returned a logP of 2.18.

Take `C=C(C)C(=O)OCC`: the logP is 1.5.

Source of the values: the SangsterLogP compilation.
